Experimental data published in PubChem BioAssay AID1963983 (Molecular Pharmacology Branch, DTP, NCI, 2024).
Values joined by “and” are separate entries in the source; they are usually repeats but may differ in a detail not shown here. Identical values can stand only once.

Tested on: 186277-243-T-J2-PDC multi-cell spheroid viability
Experiment: Anticancer human tumor 186277-243-T-J2-PDC patient-derived colon adenocarcinoma cell line growth inhibition [PI3K]
Conditions: for viability, T/C: stronger effect = lower value; active = viability on the fitted dose curve at most 10% of control; inactive = the rest
Summary of the method: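 Combination activity was assessed by viability in multicellular tumor spheroids carrying HUVEC and MSC components. Agents were tested with PI3K inhibitors from a Cmax-based top dose (or 10 microM) downward in half-log increments.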

[1] = curve of first compound, second compound 0.0316 µM
[2] = curve of first compound, second compound 0.1 µM
[3] = curve of first compound, second compound 0.316 µM
[4] = curve of first compound, second compound 1 µM
[5] = curve of first compound, second compound 3.16 µM
[6] = curve of first compound, second compound 10 µM
[7] = second compound 0.0316 µM, first compound 0.0316 µM
[8] = second compound 0.0316 µM, first compound 0.1 µM
[9] = second compound 0.0316 µM, first compound 0.316 µM
[10] = second compound 0.0316 µM, first compound 1 µM
[11] = second compound 0.0316 µM, first compound 3.16 µM
[12] = second compound 0.0316 µM, first compound 10 µM
[13] = second compound 0.1 µM, first compound 0.0316 µM
[14] = second compound 0.1 µM, first compound 0.1 µM
[15] = second compound 0.1 µM, first compound 0.316 µM
[16] = second compound 0.1 µM, first compound 1 µM
[17] = second compound 0.1 µM, first compound 3.16 µM
[18] = second compound 0.1 µM, first compound 10 µM
[19] = second compound 0.316 µM, first compound 0.0316 µM
[20] = second compound 0.316 µM, first compound 0.1 µM
[21] = second compound 0.316 µM, first compound 0.316 µM
[22] = second compound 0.316 µM, first compound 1 µM
[23] = second compound 0.316 µM, first compound 3.16 µM
[24] = second compound 0.316 µM, first compound 10 µM
[25] = second compound 1 µM, first compound 0.0316 µM
[26] = second compound 1 µM, first compound 0.1 µM
[27] = second compound 1 µM, first compound 0.316 µM
[28] = second compound 1 µM, first compound 1 µM
[29] = second compound 1 µM, first compound 3.16 µM
[30] = second compound 1 µM, first compound 10 µM
[31] = second compound 3.16 µM, first compound 0.0316 µM
[32] = second compound 3.16 µM, first compound 0.1 µM
[33] = second compound 3.16 µM, first compound 0.316 µM
[34] = second compound 3.16 µM, first compound 1 µM
[35] = second compound 3.16 µM, first compound 3.16 µM
[36] = second compound 3.16 µM, first compound 10 µM
[37] = second compound 10 µM, first compound 0.0316 µM
[38] = second compound 10 µM, first compound 0.1 µM
[39] = second compound 10 µM, first compound 0.316 µM
[40] = second compound 10 µM, first compound 1 µM
[41] = second compound 10 µM, first compound 3.16 µM
[42] = second compound 10 µM, first compound 10 µM
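Also: spheroids exposed to compounds for seven days before viability reading.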
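For viability, T/C in this document: 100% = DMSO vehicle control viability.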

C=CC(=O)N1CCN(c2nc(=O)n(-c3c(C)ccnc3C(C)C)c3nc(-c4c(O)cccc4F)c(F)cc23)C(C)C1 (stereo not given) + CC(Nc1ncnc2nc[nH]c12)c1cc2cccc(Cl)c2c(=O)n1-c1ccccc1
inactive: viability, T/C [7] 100% | viability, T/C [8] 95.4% | viability, T/C [9] 91.8% | viability, T/C [10] 90.9% | viability, T/C [11] 99.7% | viability, T/C [12] 90.4% | viability, T/C [13] 99% | viability, T/C [14] 90.1% | viability, T/C [15] 96.2% | viability, T/C [16] 93.7% | viability, T/C [17] 100% | viability, T/C [18] 107% | viability, T/C [19] 95.6% | viability, T/C [20] 87.4% | viability, T/C [21] 90% | viability, T/C [22] 92.2% | viability, T/C [23] 119% | viability, T/C [24] 88.8% | viability, T/C [25] 96.1% | viability, T/C [26] 110% | viability, T/C [27] 116% | viability, T/C [28] 101% | viability, T/C [29] 112% | viability, T/C [30] 95% | viability, T/C [31] 101% | viability, T/C [32] 91.1% | viability, T/C [33] 106% | viability, T/C [34] 101% | viability, T/C [35] 107% | viability, T/C [36] 92.3% | viability, T/C [37] 93.9% | viability, T/C [38] 89% | viability, T/C [39] 93.6% | viability, T/C [40] 76.3% | viability, T/C [41] 87.5% | viability, T/C [42] 72.7%
> 10 µM: IC50 [1] | IC50 [2] | IC50 [3] | IC50 [4] | IC50 [5] | IC50 [6]

CC1(C)CCC(Nc2ncc(C(F)(F)F)c(-c3c[nH]c4c(P(C)(C)=O)c(C#N)ccc34)n2)CN1 (stereo not given) + Cc1nc(NC(=O)N2CCCC2C(N)=O)sc1-c1ccnc(C(C)(C)C(F)(F)F)c1
inactive: viability, T/C [7] 76.1% | viability, T/C [8] 55.9% | viability, T/C [9] 57.9% | viability, T/C [10] 61.4% | viability, T/C [11] 55.8% | viability, T/C [13] 81.5% | viability, T/C [14] 54.2% | viability, T/C [15] 56.7% | viability, T/C [16] 59% | viability, T/C [17] 65% | viability, T/C [19] 77% | viability, T/C [20] 65.4% | viability, T/C [21] 55.4% | viability, T/C [22] 60.7% | viability, T/C [23] 48.7% | viability, T/C [25] 63.4% | viability, T/C [26] 57.9% | viability, T/C [27] 49.5% | viability, T/C [28] 49.2% | viability, T/C [29] 28.3% | viability, T/C [31] 31% | viability, T/C [32] 34.3% | viability, T/C [33] 21.6% | viability, T/C [34] 29.4% | viability, T/C [35] 8.8%
< 0.0316 µM: IC50 [5] | IC50 [6]
0.541 µM: IC50 [4]
active: viability, T/C [12] 0.33% | viability, T/C [18] 0.22% | viability, T/C [24] 0.44% | viability, T/C [30] 0.27% | viability, T/C [36] 0.65% | viability, T/C [37] 7.49% | viability, T/C [38] 7.95% | viability, T/C [39] 8.74% | viability, T/C [40] 4.41% | viability, T/C [41] 5.08% | viability, T/C [42] 1.35%
2.31 µM: IC50 [3]
4.03 µM: IC50 [2]
3.56 µM: IC50 [1]

CC(Nc1ncnc2nc[nH]c12)c1cc2cccc(Cl)c2c(=O)n1-c1ccccc1 (stereo not given)
inactive: viability, T/C (compound 0.0316 µM) 97.5% [middle of 8 runs] | viability, T/C (compound 0.1 µM) 102% [middle of 8 runs] | viability, T/C (compound 0.316 µM) 101% [middle of 8 runs] | viability, T/C (compound 1 µM) 101% [middle of 8 runs] | viability, T/C (compound 3.16 µM) 98.6% [middle of 8 runs] | viability, T/C (compound 10 µM) 99.5% [middle of 8 runs]
> 10 µM: IC50 (compound alone, run of 05/09/2023)

Cn1ncc(Cl)c1-c1cc(C(=O)NC(CN)Cc2cccc(F)c2)sc1Cl (stereo not given) + CC(Nc1ncnc2nc[nH]c12)c1cc2cccc(Cl)c2c(=O)n1-c1ccccc1
inactive: viability, T/C [7] 82.5% | viability, T/C [8] 83.6% | viability, T/C [9] 55.5% | viability, T/C [10] 56.8% | viability, T/C [11] 46.1% | viability, T/C [12] 15.4% | viability, T/C [13] 84.1% | viability, T/C [14] 90.4% | viability, T/C [15] 54.2% | viability, T/C [16] 56.1% | viability, T/C [17] 44.3% | viability, T/C [18] 17.5% | viability, T/C [19] 99.9% | viability, T/C [20] 86.9% | viability, T/C [21] 60.9% | viability, T/C [22] 48.8% | viability, T/C [23] 44.6% | viability, T/C [24] 16.1% | viability, T/C [25] 97.4% | viability, T/C [26] 78.3% | viability, T/C [27] 48% | viability, T/C [28] 43.1% | viability, T/C [29] 37.1% | viability, T/C [30] 13.1% | viability, T/C [31] 83.8% | viability, T/C [32] 70.6% | viability, T/C [33] 45% | viability, T/C [34] 31.8% | viability, T/C [35] 25.6% | viability, T/C [37] 85.1% | viability, T/C [38] 60.3% | viability, T/C [39] 39.3% | viability, T/C [40] 25% | viability, T/C [41] 18.7%
1.08 µM: IC50 [3]
1.5 µM: IC50 [1]
1.33 µM: IC50 [2]
0.516 µM: IC50 [4]
0.182 µM: IC50 [6]
active: viability, T/C [36] 5.44% | viability, T/C [42] 3.49%
0.304 µM: IC50 [5]

CC(Cn1ccc(-c2ccc(C#N)c(Cl)c2)n1)NC(=O)c1cc(C(C)O)[nH]n1 (stereo not given)
inactive: viability, T/C (compound 0.0316 µM) 95.5% [middle of 4 runs] | viability, T/C (compound 0.1 µM) 99% [middle of 4 runs] | viability, T/C (compound 0.316 µM) 101% [middle of 4 runs] | viability, T/C (compound 1 µM) 102% (2×) and 82% and 108% | viability, T/C (compound 3.16 µM) 96.6% [middle of 4 runs] | viability, T/C (compound 10 µM) 97.3% [middle of 4 runs]
> 10 µM: IC50 (curve of compound)
